# Experimental data reported in PubChem BioAssay (NCI).
#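 Cells were grown in 96-well plates and exposed to each compound for 48 hours at five concentrations; endpoints were interpolated linearly between bracketing concentrations, or set to the highest concentration if not reached. At the GI50, growth is halved. Definition used: TGI = concentration required for complete inhibition of growth.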
# Assays:
# Test in all cases: DTP human tumour cell line panel, 48 h
# MALME-3M melanoma = test system: MALME-3M melanoma
# UACC-62 melanoma = test system: UACC-62 melanoma
# CAKI-1 renal = test system: CAKI-1 renal
# LOX IMVI melanoma = test system: LOX IMVI melanoma
# HCC-2998 colon = test system: HCC-2998 colon
# M14 melanoma = test system: M14 melanoma
# A549 NSCLC = test system: A549 NSCLC
# KM12 colon = test system: KM12 colon
# HCT-116 colon = test system: HCT-116 colon
# CCRF-CEM leukemia = test system: CCRF-CEM leukemia
Structure (SMILES),TGI (MALME-3M melanoma) [µM],TGI (UACC-62 melanoma) [µM],TGI (CAKI-1 renal) [µM],TGI (LOX IMVI melanoma) [µM],TGI (HCC-2998 colon) [µM],TGI (M14 melanoma) [µM],TGI (A549 NSCLC) [µM],TGI (KM12 colon) [µM],TGI (HCT-116 colon) [µM],TGI (CCRF-CEM leukemia) [µM],GI50 (UACC-62 melanoma) [µM],GI50 (HCT-116 colon) [µM],GI50 (CCRF-CEM leukemia) [µM],GI50 (MALME-3M melanoma) [µM],GI50 (CAKI-1 renal) [µM],GI50 (LOX IMVI melanoma) [µM],GI50 (HCC-2998 colon) [µM],GI50 (M14 melanoma) [µM],GI50 (A549 NSCLC) [µM],GI50 (KM12 colon) [µM]
c1ccc2sc(SCN(C3CCCCC3)C3CCCCC3)nc2c1,> 100,> 100,> 100,> 100,> 100,> 100,> 100,> 100,,,,,,,,,,,,
COc1cc(S(=O)(=O)Nc2nc(-c3ccc(N)cc3)cs2)ccc1Cl,> 100,> 100,> 100,> 100,,> 100,> 100,> 100,> 100,> 100,,,,,,,,,,
COc1ccc(OC)c(C#Cc2ccc(OC)c(C(=O)NCCc3ccc(F)cc3)c2)c1,,> 100,> 100,> 100,7.73,> 100,> 100,> 100,> 100,> 100,5.96,4.7,4.72,,,,,,,
Cc1cc(N(CCCCl)CCCCl)ccc1C=Nc1cccc(Cl)c1,22.8,7.28,,26.7,,60.5,24.7,26.3,> 100,,,,,,,,,,,
COc1ccc([C@H]2C=C(c3cc(F)c(Cl)cc3Cl)NC(=S)N2)cc1,> 100,> 100,> 100,> 100,70.5,> 100,> 100,> 100,84.9,> 100,,,,,,,,,,
CC(C)=CCC[C@](C)(O[C@@H]1O[C@H](CO)[C@@H](O)[C@H](O)[C@H]1O)[C@H]1CC[C@]2(C)[C@@H]1[C@H](O)C[C@@H]1[C@@]3(C)CC[C@H](O)C(C)(C)[C@@H]3[C@@H](O[C@@H]3O[C@H](CO)[C@@H](O)[C@H](O)[C@H]3O)C[C@]12C,> 100,> 100,> 100,> 100,> 100,> 100,> 100,> 100,> 100,> 100,,,,,,,,,,
COc1cc2c(cc1Oc1ccc(OC)c3c1CC1c4c(cc(OC)c(OC)c4-3)CCN1C)CC1c3c(cc(OC)c(OC)c3-2)CCN1C (stereo not given),3.38,3.65,8.06,2.48,5.89,,25.9,9.33,4.49,10.2,,,,,,,,,,
O=c1cc(O)c2ccccc2o1,> 100,> 100,> 100,> 100,> 100,> 100,> 100,> 100,> 100,> 100,,,,,,,,,,
Cn1c(Sc2ccc(-c3cccnc3)n2C)ccc1-c1cccnc1,23.3,29.7,36.5,15.8,34.7,37,80.9,33.6,25.7,4.53,,,,,,,,,,
CCOC(=O)CCC(C(=O)OCC)n1nnc2ccc(Nc3c(C)[n+]([O-])c4cc(Cl)ccc4[n+]3[O-])cc21 (stereo not given),35.2,35.1,> 100,35.7,49.7,40.2,> 100,86.7,> 100,> 100,,,,,,,,,,
COc1cc(O)c2c(c1)C(=O)c1cc(C)cc(O)c1C2=O,> 100,> 100,> 100,> 100,> 100,> 100,> 100,> 100,> 100,> 100,,,,,,,,,,
CCOC(=O)NC,> 100,> 100,> 100,> 100,> 100,> 100,> 100,> 100,> 100,> 100,,,,,,,,,,
Cc1c2cccc-2ccc2c1[nH]c1ccc(Br)cc12,21.5,27.1,24.9,15,49.3,20.9,17.5,7.08,17.2,90.9,,,,,,,,,,
Nc1nnc(N)n1NC(=O)C(=O)Nc1ccc([N+](=O)[O-])cc1,> 100,> 100,> 100,> 100,> 100,,> 100,> 100,> 100,> 100,,,,,,,,,,
NNc1ccccc1Cl,> 100,> 100,> 100,> 100,> 100,> 100,> 100,> 100,> 100,> 100,,,,,,,,,,
Nc1ccc(Nc2c3ccccc3nc3ccccc23)cc1,8.96,5.22,6.94,2.35,> 10,> 10,> 10,> 10,9.52,6.19,,,,,,,,,,
O=C(O)C1=NNC(C(=O)O)=NN1,> 100,> 100,> 100,> 100,,> 100,> 100,> 100,> 100,> 100,,,,,,,,,,
O=C1c2ccccc2C(=O)c2c1ccc(C(=O)O)c2-c1ccc2ccccc2c1,70.7,37.8,> 100,41.6,> 100,54.1,> 100,> 100,47.7,52.4,,,,,,,,,,
Cc1cc(=O)oc2c1cc(OCC(=O)OCCN1CCCCC1)c1occ(C)c12,> 100,> 100,> 100,> 100,> 100,> 100,> 100,> 100,> 100,> 100,,,,,,,,,,
CC(CO)(CO)Nc1ncnc2ccccc12,> 100,> 100,> 100,> 100,> 100,> 100,> 100,> 100,> 100,> 100,,,,,,,,,,
NC(=O)Nc1cc(O)ccc1N=Nc1ccc(S(=O)(=O)Nc2ccccn2)cc1,> 100,> 100,> 100,> 100,> 100,> 100,> 100,> 100,> 100,> 100,,,,,,,,,,
C[n+]1ccc(-c2cc[n+](C)cc2)cc1,0.981,,> 100,> 48.1,97.8,> 35.9,> 95,> 92.4,> 44.5,> 100,,,,,,,,,,
Fc1ccc(-c2nnc3sc(COc4ccccc4Cl)nn23)cc1Cl,> 100,> 100,> 100,31.6,> 100,> 100,> 100,> 100,> 100,52.6,38.4,29.1,20.8,70.9,76.6,16.5,> 100,34.9,41.1,77.1
CC[C@H](C)C1=C(O)[N@+]2([O-])Oc3ccc(-c4c(O)c(O)c(-c5ccc(OC(C)=O)cc5)c(OC(C)=O)c4OC(C)=O)cc3O[C@]2([C@@H](C)CC)C(=O)N1O,> 50,> 50,> 50,> 50,24.5,> 50,> 50,> 50,17.8,23.8,,,,,,,,,,
CC1(O)CC23CC1CCC2(C)C12CCCC(C)(C(=O)O1)C2CC3O (stereo not given),> 100,> 100,> 100,> 100,> 100,> 100,> 100,> 100,> 100,> 100,,,,,,,,,,
COc1c(Cl)cc(S(=O)O)cc1Cl,> 100,> 100,,> 100,> 100,> 100,,> 100,> 100,> 100,,,,,,,,,,
